Patent US4929633A, “Actinonin derivatives having physiological activities” (Zaidan Hojin Biseibutsu Kagaku Kenkyu Kai, priority 1987, dated 1990)
“Also recorded” adds a separate entry of the source.

How the values were obtained:
[1] = molecular target: angiotension-conversion enzyme (ACE) (Homo sapiens, UniProt P12821); assay: ACE-inhibitory activity (method of Analytical Biochemistry 84, 361 (1978)); assay type: biochemical
Description: The enzyme-inhibitory activity of the test compounds against ACE were estimated in accordance with a method as described in the literature "Analytical Biochemistry", 84, 361 (1978).

[2] = molecular target: T1, post-proline-cleaving enzyme (PPCE) (Sus scrofa, UniProt P23687); assay: PPCE-inhibitory activity (substrate Z-Gly-Pro-PNA); assay type: biochemical, swine; settings: for IC50: 37° C., 15 minutes, PPCE from swine kidney
T1 construct: PPCE used was an enzyme preparation made from swine kidney; from tissue; host or cells: swine kidney, ammonium sulfate fractionation and DEAE-Sephadex chromatography
T1 sequence (P23687 whole entry): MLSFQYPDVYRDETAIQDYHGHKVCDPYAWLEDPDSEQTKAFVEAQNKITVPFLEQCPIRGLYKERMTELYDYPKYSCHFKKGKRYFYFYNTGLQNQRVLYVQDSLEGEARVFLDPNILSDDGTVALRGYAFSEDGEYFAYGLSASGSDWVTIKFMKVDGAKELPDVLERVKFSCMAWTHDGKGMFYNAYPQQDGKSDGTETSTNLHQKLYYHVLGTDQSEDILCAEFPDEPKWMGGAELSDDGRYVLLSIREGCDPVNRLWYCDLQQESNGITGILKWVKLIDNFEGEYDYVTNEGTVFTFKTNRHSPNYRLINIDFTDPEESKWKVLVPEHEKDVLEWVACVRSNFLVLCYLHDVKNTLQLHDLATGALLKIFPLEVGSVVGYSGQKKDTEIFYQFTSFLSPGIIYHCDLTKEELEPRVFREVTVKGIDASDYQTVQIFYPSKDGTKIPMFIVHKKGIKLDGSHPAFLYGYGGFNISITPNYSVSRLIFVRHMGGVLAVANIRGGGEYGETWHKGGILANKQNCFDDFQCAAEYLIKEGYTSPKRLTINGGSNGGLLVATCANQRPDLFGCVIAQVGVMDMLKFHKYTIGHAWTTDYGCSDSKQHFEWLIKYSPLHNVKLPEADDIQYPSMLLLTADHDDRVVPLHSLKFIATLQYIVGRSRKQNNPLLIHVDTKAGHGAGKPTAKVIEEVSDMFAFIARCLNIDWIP
Description: The enzyme-inhibitory activities of these test compounds against PPCE were estimated by adding a substrate compound of the formula [drawing 18] namely, N-benzyloxycarbonyl-glycyl-prolyl-p-nitroanilide (Z-Gly-Pro-PNA) to a solution of an enzyme, then adding to the solution each test compound having the enzyme-inhibiting activity to be assayed, reacting the substrate, the enzyme and the test compounds with each other at 37° C. for 15 minutes and then measuring the consumed amount of the substrate in terms of the determined reduction in the absorbency of a ultraviolet ray of a given wave length which transmitted the reaction solution where the substrate compounds, the enzyme and the enzyme-inhibiting test compound have been reacted with each other. In these tests, PPCE used was an enzyme preparation made from swine kidney and prior to its use, was purified by fractionation with ammonium sulfate and by subsequent chromatography on DEAE-Sephadex agent.

peptidases = settings: Journal of Antibiotics 38, 1629-1630 (1985); cited from earlier work
[3] = U.S. Pat. No. 3,240,787; cited from earlier work
[4] = Kokai No. 15840/86; U.S. Pat. No. 4,663,342; cited from earlier work
[5] = system: enkephalin-degrading enzymes; settings: Kokai No. 4228/87; cited from earlier work
[6] = Kokai No. 4228/87; cited from earlier work
[7] = system: experimental amnesia in mice; assay: step-down type passive avoidance response test, cycloheximide-induced amnesia in mice; assay type: in vivo, mouse (male ddy-mice); settings: for Residence time: 24 h, max 300 s, control mice 220 ± 37
Description: These experiments were performed using male ddy-mice having an average body weight of 25 g as the test animal. A platform in cubic form having a length of 4 cm for each side of the cube was arranged in a cage on the floor of the cage. Each mouse was placed on the platform. An electric current-feeding device had been provided on the floor area of the cage which positioned outside the platform. It was so arranged that whenever the mouse descended onto the floor from the platform, a 60 V electric current was caused to pass through the floor for 0.5 second to shock the mouse so as to have the mouse learn the shocking passage of electric current. Immediately after the mouse's learning, the mouse was subcutaneously administered with 30 mg/kg of cycloheximide so as to induce experimental amnesia. Each test compound had been intraperitoneally administered to the mouse at a time of 15 minutes before the mouse's learing was commenced. Upon an elapsed time of 24 hours after the completion of the mouse's learning for the electric current passage, the mouse treated as above was again placed on the same platform in the same cage under the same conditions, and the residence time of the mouse staying on the platform was measured under a pre-requisit that a maximum residence time as determined was set to be up to 300 seconds.
The results of the experiments for the cycloheximide-induced amnestic mice as treated by the previous intraperitoneal administration of the test compound of this invention are summarized in Table 2 below.

Chain of angiotension-conversion enzyme (ACE) (P12821 30-1306, species assumed): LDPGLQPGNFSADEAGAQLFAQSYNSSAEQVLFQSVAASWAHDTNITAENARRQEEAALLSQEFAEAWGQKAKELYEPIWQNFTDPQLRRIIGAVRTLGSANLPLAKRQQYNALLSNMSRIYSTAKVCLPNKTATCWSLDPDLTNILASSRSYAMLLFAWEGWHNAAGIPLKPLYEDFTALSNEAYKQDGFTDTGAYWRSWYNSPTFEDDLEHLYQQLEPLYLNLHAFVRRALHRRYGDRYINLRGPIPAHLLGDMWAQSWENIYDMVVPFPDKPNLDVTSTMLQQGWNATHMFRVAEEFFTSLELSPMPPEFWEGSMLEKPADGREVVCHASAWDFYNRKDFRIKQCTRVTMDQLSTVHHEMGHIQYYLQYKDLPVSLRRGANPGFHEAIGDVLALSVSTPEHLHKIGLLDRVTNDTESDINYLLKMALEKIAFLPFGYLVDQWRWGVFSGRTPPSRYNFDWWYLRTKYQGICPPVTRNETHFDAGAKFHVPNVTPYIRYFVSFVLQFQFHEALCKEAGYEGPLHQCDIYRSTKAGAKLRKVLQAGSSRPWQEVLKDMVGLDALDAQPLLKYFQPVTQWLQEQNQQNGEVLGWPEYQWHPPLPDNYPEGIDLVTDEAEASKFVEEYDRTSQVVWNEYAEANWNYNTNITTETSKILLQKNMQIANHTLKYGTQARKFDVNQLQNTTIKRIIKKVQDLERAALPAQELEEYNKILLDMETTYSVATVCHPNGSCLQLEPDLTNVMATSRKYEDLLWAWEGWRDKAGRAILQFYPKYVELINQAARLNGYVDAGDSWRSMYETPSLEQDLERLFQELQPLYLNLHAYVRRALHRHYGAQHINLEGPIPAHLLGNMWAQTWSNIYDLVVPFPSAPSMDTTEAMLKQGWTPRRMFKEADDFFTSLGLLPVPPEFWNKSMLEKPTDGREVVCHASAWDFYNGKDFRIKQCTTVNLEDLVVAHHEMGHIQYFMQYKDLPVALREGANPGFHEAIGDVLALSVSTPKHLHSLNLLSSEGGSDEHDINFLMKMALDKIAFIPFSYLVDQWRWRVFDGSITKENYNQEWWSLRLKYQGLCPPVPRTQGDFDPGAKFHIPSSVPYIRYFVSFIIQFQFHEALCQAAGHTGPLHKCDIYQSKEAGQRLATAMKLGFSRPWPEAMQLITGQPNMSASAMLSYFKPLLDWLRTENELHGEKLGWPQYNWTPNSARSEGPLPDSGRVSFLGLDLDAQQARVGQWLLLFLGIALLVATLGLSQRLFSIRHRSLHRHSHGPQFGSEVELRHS

IC50 [1]	IC50 [2]	SMILES	ACE-inhibitory activity (in words) [1]	PPCE-inhibitory activity (in words) [2]	further results
> 136 µM	0.0841 µM	CCCCC[C@H](CC(=O)O)C(=O)N[C@H](C(=O)N1CCC[C@H]1C=O)C(C)C [Example 1, (2S)-2-pentylsuccinyl-L-valyl-L-prolinal]			
> 126 µM	0.0555 µM	CCCCC[C@H](CC(=O)OCC)C(=O)N[C@H](C(=O)N1CCC[C@H]1C=O)C(C)C [Example 2, (2S)-3-Ethoxycarbonyl-2-pentylpropionyl-L-valyl-L-prolinal]	no enzyme-inhibitory activity against ACE	strong PPCE-inhibitory activity	Residence time ([7]; 3 mg/kg i.p. 15 min before learning, cycloheximide 30 mg/kg s.c., n=9, cycloheximide alone 114 ± 26): 188 ± 35 s; Residence time ([7]; 10 mg/kg i.p. 15 min before learning, cycloheximide 30 mg/kg s.c., n=9, cycloheximide alone 114 ± 26): 180 ± 26 s; therapeutic effects to treat the experimental amnesia (in words) ([7]; cycloheximide-induced amnesia, mice): marked therapeutic effects

Further lines, the molecule ahead of its results:

SMILES	IC50 [1]	IC50 [2]	ACE-inhibitory activity (in words) [1]	PPCE-inhibitory activity (in words) [2]	further results
CCCCC[C@H](CC(=O)NO)C(=O)N[C@H](C(=O)N1CCC[C@H]1CO)C(C)C [Actinonin]	37.9 µM	77.8 µM	medium enzyme-inhibitory activity; also recorded: medium enzyme-inhibitory activities	medium enzyme-inhibitory activity; also recorded: medium enzyme-inhibitory activities	inhibition of peptidases (in words) (peptidases): inhibit a wide variety of peptidases; antibacterial activity (in words) [3]: antibacterial activity; immunopotentiating activity (in words) [4]: immunopotentiating activity; inhibition of the enkephalin-degrading enzymes (in words) [5]: can inhibit the enkephalin-degrading enzymes; anodyne activity (in words) [6]: anodyne activity
CCCCC[C@H](CC(=O)O)C(=O)N[C@H](C(=O)N1CCC[C@H]1CO)C(C)C [Compound of the Formula (III), (2S)-2-pentylsuccinyl-L-valyl-L-prolinol]	> 135 µM	> 135 µM			
C[C@@H]1C[C@@H]([C@H](O)CC2CC(=O)NC(=O)C2)C(=O)[C@@H](C)C1 [cycloheximide]					Residence time ([7]; cycloheximide alone (comparative), 30 mg/kg s.c. after learning, n=10): 114 ± 26 s
